Several values for one entry are separate records, joined by “and”; a condition that tells them apart may be missing. Equal values may be shown once. Read-outs that look alike come from different tables or passages of the source.
Tests used:
E. coli LPS [1] = assay: Displacement of LPS from binding to BODIPY TR cadaverine (Tables 3, 9, 12, 13); details: E. coli LPS 15 μg/ml
P. gingivalis LPS 1690 = format: biochemical
Experimental: (§1) The Limulus Amebocyte Lysate Assay (LAL) is an assay to determine the total amount of lipopolysaccharide (LPS) in the sample tested (Pierce LAL Chromogenic Endotoxin Quantitation Kit, ThermoFischer Scientific, Waltham, Mass.). The assay was performed following manufacturer's instruction. Ninety-six-well microplates were first equilibrated in a heating block for 10 min at 37° C. Fifty μl each of standard or sample was dispensed into the microplate wells and incubated with the plate covered for 5 min at 37° C. Then 50 μl LAL was added to each well.
(§2) Plates were shaken gently and incubated for 10 min at 37° C. 100 μl of chromogenic substrate was added and incubated for 6 min at 37° C.
(§3) The Thermo Scientific Pierce LAL Chromogenic Endotoxin Quantitation Kit is a quantitative endpoint assay for the detection of LPS, which catalyzes the activation of a proenzyme in the modified Limulus Amebocyte Lysate (LAL). The activated proenzyme then splits p-Nitroaniline (pNA) from the colorless substrate, Ac-Ile-Glu-Ala-Arg-pNA. […] Then 50 μl LAL was added to each well. Plates were shaken gently and incubated for 10 min at 37° C. 100 μl of chromogenic substrate was added and incubated for 6 min at 37° C.

E. coli LPS [2] = format: biochemical
Experimental: as §1, §2, §3

THP-1 cells = assay: LPS stimulated cytokine production in THP-1 cells with citrulline; format: cell-based, human; details: 0.3 mM to 9 mM; 300 ng/ml LPS; 24 hours
Experimental: Citrulline was purchased from Sigma-Aldrich (St. Louis, Mo.). THP1-Dual™ cells were purchased from Invivogen (San Diego, Calif.). Cells were cultured following the manufacturer's instruction, as described in EXAMPLE 11. For treatment, 0.3 mM to 9 mM of citrulline were first added to the culture medium. […] After 24 hours of treatment, media was collected and analyzed for cytokine production using 9-plex kit (Meso Scale Diagnostics Rockville, Md.).

NFkB-SEAP reporter gene = assay: THP1-Dual reporter cells, NFkB-SEAP; format: cell-based, human; details: dose dependent
Source text: (§4) THP1 NFkB-SEAP and IRF-Lucia™ Reporter Monocytes were purchased from Invivogen, San Diego, Calif. THP1-Dual cells were derived from the human THP-1 monocyte cell line by stable integration of two inducible reporter constructs. THP1-Dual cells feature the Lucia gene under the control of an ISG54 (interferon-stimulated gene) minimal promoter in conjunction with five interferon-stimulated response elements. THP1-Dual cells also express a SEAP reporter gene driven by an IFN-b minimal promoter fused to five copies of the NF-kB consensus transcriptional response element and three copies of the c-Rel binding site. As a result, THP1-Dual cells allow the simultaneous study of the NFkB pathway, by monitoring the activity of SEAP, and the interferon regulatory factor (IRF) pathway, by assessing the activity of Lucia (IRF-Luc). Both reporter proteins are readily measurable in the cell culture supernatant.
(§5) Cells were passed every 3 to 4 days by inoculating 300,000-500,000 cells/ml into a fresh T75 flask with 15 ml of fresh growth medium. […] After incubation for 18 hours at 37° C. and 5% CO2, secreted luciferase and SEAP were quantified with commercially available assay kits (QUANTI-Luc of Invivogen, San Diego, Calif. for luciferase; SEAP Reporter Gene Assay of Cayman Chemical Co., Ann Arbor, Mich. for SEAP).

TLR4 [3] = molecular target: T1, TLR4 (Homo sapiens, UniProt O00206+Q9Y6Y9); assay: cell-based; format: cell-based; set-up: host or cells: HEK-Blue-hTLR4 (HEK 293T); details: for Average fluorescence intensity (FI): Control 1027
Target sequence in this assay (O00206 24-839): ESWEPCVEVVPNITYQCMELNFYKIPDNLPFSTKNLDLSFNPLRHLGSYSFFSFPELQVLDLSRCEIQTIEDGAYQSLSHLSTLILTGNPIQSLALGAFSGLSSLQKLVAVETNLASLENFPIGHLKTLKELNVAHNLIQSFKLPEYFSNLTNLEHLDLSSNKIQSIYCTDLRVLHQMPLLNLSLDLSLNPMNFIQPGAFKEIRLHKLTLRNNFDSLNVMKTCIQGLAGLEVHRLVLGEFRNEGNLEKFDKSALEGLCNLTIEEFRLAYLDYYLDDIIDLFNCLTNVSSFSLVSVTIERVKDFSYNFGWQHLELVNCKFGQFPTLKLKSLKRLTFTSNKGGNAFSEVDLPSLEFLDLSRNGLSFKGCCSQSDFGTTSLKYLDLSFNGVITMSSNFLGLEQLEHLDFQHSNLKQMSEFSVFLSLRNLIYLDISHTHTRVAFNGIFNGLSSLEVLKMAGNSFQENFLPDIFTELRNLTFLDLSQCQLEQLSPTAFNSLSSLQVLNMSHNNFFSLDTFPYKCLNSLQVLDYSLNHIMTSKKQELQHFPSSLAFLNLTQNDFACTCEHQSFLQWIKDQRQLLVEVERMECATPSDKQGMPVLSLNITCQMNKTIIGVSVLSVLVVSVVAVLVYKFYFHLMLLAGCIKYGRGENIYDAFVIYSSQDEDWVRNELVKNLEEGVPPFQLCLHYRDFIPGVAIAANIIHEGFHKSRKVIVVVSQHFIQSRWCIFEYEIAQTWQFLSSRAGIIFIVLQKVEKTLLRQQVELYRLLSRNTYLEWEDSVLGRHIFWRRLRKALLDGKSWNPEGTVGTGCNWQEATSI
Target sequence in this assay (Q9Y6Y9 17-160): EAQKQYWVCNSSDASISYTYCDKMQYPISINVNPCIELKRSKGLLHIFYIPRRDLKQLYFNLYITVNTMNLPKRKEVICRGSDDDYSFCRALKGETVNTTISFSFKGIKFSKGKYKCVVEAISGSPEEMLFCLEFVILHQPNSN
Experimental: Stannous fluoride, Cetylpyridium chloride (CPC) and Triclosan were purchased from Sigma-Aldrich, St. Louis, Mo. […] The growth medium: DMEM, with 4.5 g/l glucose, supplemented 10% fetal bovine serum, 50 U/ml penicillin and streptomycin, 100 μg/ml Normocin, and 2 mM L-glutamine, purchased from Thermo Fisher, Waltham, Mass.

E. coli LPS [4] = test system: E. coli LPS
Experimental: 0.7 ul of the sample solution was spotted on a MALDI plate, air-dried, and analyzed in negative ion mode using a MALDI-TOF/TOF 4800 plus system (AB-Sciex, Framingham, Mass., USA). Typical data acquisition uses mass scan range 500-3000 Da and a laser power of 4500. Data was collected in an automated fashion using random sampling over the sample spot with 250 shots per subspectrum and a total of 2500 shots per spectrum.

TLR2 = molecular target: T2, TLR2 (Homo sapiens, UniProt O60603); format: cell-based; details: stannous 1000 uM; P. gingivalis LPS
T2 construct: host or cells: human HEK 293T cells
T2 sequence (O60603 21-784): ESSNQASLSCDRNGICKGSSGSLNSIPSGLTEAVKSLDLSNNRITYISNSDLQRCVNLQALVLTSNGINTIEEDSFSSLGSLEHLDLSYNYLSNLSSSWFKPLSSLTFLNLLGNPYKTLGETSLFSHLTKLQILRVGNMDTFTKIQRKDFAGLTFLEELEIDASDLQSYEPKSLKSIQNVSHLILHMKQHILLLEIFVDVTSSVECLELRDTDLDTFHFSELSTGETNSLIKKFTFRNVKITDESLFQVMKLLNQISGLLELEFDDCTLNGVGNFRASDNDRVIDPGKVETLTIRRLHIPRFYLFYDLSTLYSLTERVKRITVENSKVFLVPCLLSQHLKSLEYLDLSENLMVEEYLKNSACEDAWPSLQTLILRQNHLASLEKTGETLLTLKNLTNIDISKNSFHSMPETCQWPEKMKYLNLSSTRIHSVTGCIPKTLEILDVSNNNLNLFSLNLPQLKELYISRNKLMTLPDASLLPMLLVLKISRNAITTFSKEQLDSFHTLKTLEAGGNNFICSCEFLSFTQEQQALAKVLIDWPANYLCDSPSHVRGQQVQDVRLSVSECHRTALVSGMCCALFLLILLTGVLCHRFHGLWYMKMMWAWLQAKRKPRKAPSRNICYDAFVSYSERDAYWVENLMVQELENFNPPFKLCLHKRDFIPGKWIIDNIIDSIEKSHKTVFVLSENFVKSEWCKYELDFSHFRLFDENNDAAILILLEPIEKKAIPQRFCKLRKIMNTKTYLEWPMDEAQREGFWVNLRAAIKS
Source text: The cell line is named here as TLR2-SEAP. The reporter gene encodes a secreted enzyme, called embryonic alkaline phosphatase or SEAP. The SEAP reporter is placed under the control of the interferon-β minimal promoter fused to five NFkB and AP-1-binding sites. Furthermore, a CD14 co-receptor gene was transfected into the reporter gene cells expressing TLR2, as CD14 has been identified as a co-receptor for TLR2 ligands to enhance the TLR response. The CD14 co-receptor is needed to transfer LTA to TLR2 receptors. The recombinant TLR2 binds its ligand, or distinct pathogen-associated molecule, initiates a chain of responses, leading to recruitment of NFkB and API transcription factors to the reporter gene promoter, which induce expression of SEAP.
For treatment with LTA, wells of a 96-well plate were seeded with 10,000 cells/well in 100 μL of growth medium. […] On day 4, medium (100 μL) was changed to DMEM medium without fetal calf serum. […] Samples were taken 24 hours later, following addition of samples. Expression of the reporter gene (SEAP) was quantified with a commercially available kit (SEAP Reporter Gene Assay of Cayman Chemical Co., Ann Arbor, Mich.).

[5] = test system: IRF-luciferase reporter gene; assay: THP1-Dual reporter cells, IRF-Lucia luciferase; format: cell-based, human
Source text: as §4, §5

TLR4 [6] = molecular target: T1, TLR4; format: cell-based; set-up: host or cells: human HEK 293T cells; details: for reduction of P. gingivalis LPS activation on the TLR4 reporter system: P. gingivalis LPS 500 ng/ml
Target sequence in this assay (O00206 24-839): as the sequence (O00206 24-839) above
Target sequence in this assay (Q9Y6Y9 17-160 limits assumed): as the sequence (Q9Y6Y9 17-160) above
Source text: The cell line is named here as TLR4-SEAP. The reporter gene encodes a secreted enzyme, called embryonic alkaline phosphatase or SEAP. The SEAP reporter is placed under the control of an IL-12 p40 minimal promoter fused to five NF-κB and AP-1-binding sites. Furthermore, the TLR4-SEAP cell line also contains a CD14 co-receptor gene, which is needed to transfer LPS to TLR4 receptors. The recombinant TLR binds its ligand, or distinct pathogen-associated molecule, initiates a chain of responses, leading to recruitment of NFkB and API transcription factors to the reporter gene promoter, which induce expression of SEAP.
For treatment, wells of a 96-well plate were seeded with 10,000 cells/well in 100 μL of growth medium. […] On day 4, medium was changed to assay medium (90 μl), which is the DMEM medium without fetal calf serum. […] 10 μl of the bacteria, LPS and culture medium of bacterial growth were added to the TLR4-SEAP cells. Samples were taken 24 hours later, following addition of LPS, bacteria, and culture medium. Expression of the reporter gene (SEAP) was quantified with a commercially available kit (SEAP Reporter Gene Assay of Cayman Chemical Co., Ann Arbor, Mich.).
EC50 was calculated using GraphPad Prism software (GraphPad Software, La Jolla, Calif.).
Tests were conducted to understand whether stannous fluoride could reduce LPS's ability to trigger proinflammatory responses in host cells.

human primary monocytes = assay: LPS-stimulated cytokine production in human primary monocytes; format: cell-based
Experimental: The primary human monocytes were purchased from Astarte Biologics (Bothell, Wash.). […] The medium was harvested at 24 hours after adding LPS and SnF2, and analyzed for proinflammatory cytokines in a kit following manufacturer's instruction (Meso Scale Diagnostics, Rockville, Md.).

TLR5 = molecular target: T3, TLR5 (Homo sapiens, UniProt O60602); assay: TLR5-NFkB-SEAP reporter gene assay in HEK 293T cells; format: cell-based
T3 construct: host or cells: human HEK 293T cells
T3 sequence (O60602 21-858): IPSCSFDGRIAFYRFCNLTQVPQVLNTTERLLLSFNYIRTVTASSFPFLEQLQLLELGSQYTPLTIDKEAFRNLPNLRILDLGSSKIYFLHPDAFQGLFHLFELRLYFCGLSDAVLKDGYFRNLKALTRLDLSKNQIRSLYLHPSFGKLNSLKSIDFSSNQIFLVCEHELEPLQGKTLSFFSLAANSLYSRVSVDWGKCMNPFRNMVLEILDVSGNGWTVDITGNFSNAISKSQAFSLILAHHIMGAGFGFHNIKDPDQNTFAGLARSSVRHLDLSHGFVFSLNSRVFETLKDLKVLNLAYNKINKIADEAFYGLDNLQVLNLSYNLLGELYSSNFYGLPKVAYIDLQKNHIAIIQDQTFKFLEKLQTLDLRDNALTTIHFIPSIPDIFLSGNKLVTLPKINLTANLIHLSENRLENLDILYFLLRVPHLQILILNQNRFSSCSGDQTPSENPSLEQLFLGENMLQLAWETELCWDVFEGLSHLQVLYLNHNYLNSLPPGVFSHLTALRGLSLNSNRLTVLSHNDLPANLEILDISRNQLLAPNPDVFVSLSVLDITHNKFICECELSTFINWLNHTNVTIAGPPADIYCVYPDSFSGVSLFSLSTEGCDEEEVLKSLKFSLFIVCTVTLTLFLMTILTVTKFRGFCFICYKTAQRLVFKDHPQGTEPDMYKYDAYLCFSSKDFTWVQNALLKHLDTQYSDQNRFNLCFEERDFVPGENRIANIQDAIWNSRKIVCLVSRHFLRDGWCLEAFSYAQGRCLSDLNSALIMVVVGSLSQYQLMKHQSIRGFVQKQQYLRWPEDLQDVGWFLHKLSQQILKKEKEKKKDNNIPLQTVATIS
Experimental: The cell line was named as TLR5-NFkB-SEAP.
S. subtilis and S. aureus flagellin were added at a range of concentration from 0.97 ng to 1 μg/ml. […]

1,3-Diphenylacetone (1,3 diphenyl-2-propanone)
LPS displacement % Mean (E. coli LPS [1]): 11%
LPS displacement % Reading 1 (E. coli LPS [1]): 16%
LPS displacement % Reading 3 (E. coli LPS [1]): 5%

CC(O)C(=O)[O-].CC(O)C(=O)[O-].[Zn+2] (racemic) [dl-lactic acid hemizinc salt]
LPS displacement % Mean (E. coli LPS [1]): 19%
LPS displacement % Reading 1 (E. coli LPS [1]): 15%
LPS displacement % Reading 3 (E. coli LPS [1]): 24%

[O-]n1ccccc1=S.[O-]n1ccccc1=S.[Zn+2] [1-Hydroxypyridine-2-thone zinc salt]
Inhibition of LAL activity % (P. gingivalis LPS 1690): 0%
Inhibition of LAL activity % (E. coli LPS [2]): 2% and 6%

CC(C=O)Cc1ccc(C(C)C)cc1 (centres unmarked) [3-(4-Isopropylphenyl)-2-methylpropionaldehyde]
LPS displacement % Mean (E. coli LPS [1]): 39%
LPS displacement % Reading 1 (E. coli LPS [1]): 21%
LPS displacement % Reading 2 (E. coli LPS [1]): 29%
LPS displacement % Reading 3 (E. coli LPS [1]): 65%

CCCCCCCCCCCC(=O)NCCCN(C)C [3-Dodecanamidopropyldimethylamine]
LPS displacement % Mean (E. coli LPS [1]): 79%
LPS displacement % Reading 1 (E. coli LPS [1]): 87%
LPS displacement % Reading 2 (E. coli LPS [1]): 62%
LPS displacement % Reading 3 (E. coli LPS [1]): 87%

NC(=O)NCCC[C@H](N)C(=O)O [Citrulline]
effect on P. gingivalis LPS 1690 stimulated proinflammatory cytokine production (IL-6, TNF-α, IL-12p70, IL-10, IL-2, IFN-r, IL-1β) (THP-1 cells): inhibited

[Cu+].[I-] [Copper(I) iodide]
LPS displacement % Mean (E. coli LPS [1]): 18%
LPS displacement % Reading 1 (E. coli LPS [1]): 23%
LPS displacement % Reading 2 (E. coli LPS [1]): 12%
LPS displacement % Reading 3 (E. coli LPS [1]): 20%

C=CC[N+](C)(C)CC=C.[Cl-] [Diallyldimethylammonium chloride]
LPS displacement % Mean (E. coli LPS [1]): 35%
LPS displacement % Reading 1 (E. coli LPS [1]): 40%
LPS displacement % Reading 2 (E. coli LPS [1]): 38%
LPS displacement % Reading 3 (E. coli LPS [1]): 28%

CCCCCCCCCCCCCCCCCC(=O)NCCN(CC)CC [Diethylaminoethyl stearamide]
LPS displacement % Mean (E. coli LPS [1]): 66%
LPS displacement % Reading 1 (E. coli LPS [1]): 77%
LPS displacement % Reading 2 (E. coli LPS [1]): 62%
LPS displacement % Reading 3 (E. coli LPS [1]): 58%
inhibition (Lipopolysaccharide): 97.4%

CC(C)CCOC(=O)c1ccccc1 [Isopentyl benzoate]
LPS displacement % Mean (E. coli LPS [1]): 18%
LPS displacement % Reading 1 (E. coli LPS [1]): 22%
LPS displacement % Reading 3 (E. coli LPS [1]): 13%

CCCCC/C=C\C/C=C\CCCCCCCC(=O)OC [Methyl linoleate]
LPS displacement % Mean (E. coli LPS [1]): 88%
LPS displacement % Reading 1 (E. coli LPS [1]): ~100%
LPS displacement % Reading 2 (E. coli LPS [1]): 53%
LPS displacement % Reading 3 (E. coli LPS [1]): ~100%
inhibition (Lipopolysaccharide): 36.9%

CCCCCCCCCCCCCC[n+]1ccc(C)cc1.[Cl-] [Myristyl-γ-picolinium chloride]
LPS displacement % Mean (E. coli LPS [1]): ~100%
LPS displacement % Reading 1 (E. coli LPS [1]): ~100%
LPS displacement % Reading 2 (E. coli LPS [1]): ~100%
LPS displacement % Reading 3 (E. coli LPS [1]): ~100%
inhibition (Lipopolysaccharide): 96.2% and 96%

CCCCCCCCCCCCN(C)C [N,N-Dimethyldodecylamine]
LPS displacement % Mean (E. coli LPS [1]): 22%
LPS displacement % Reading 1 (E. coli LPS [1]): 36%
LPS displacement % Reading 2 (E. coli LPS [1]): 18%
LPS displacement % Reading 3 (E. coli LPS [1]): 13%

CCCCCCCCCCCC[n+]1ccccc1.[Cl-] [N-Laurylpyridinium chloride]
LPS displacement % Mean (E. coli LPS [1]): 60%
LPS displacement % Reading 1 (E. coli LPS [1]): 66%
LPS displacement % Reading 2 (E. coli LPS [1]): 56%
LPS displacement % Reading 3 (E. coli LPS [1]): 59%
inhibition (Lipopolysaccharide): 96.5%

CCCCCCCCCCCCCC(=O)NCC(=O)O [N-Myristoylglycine]
LPS displacement % Mean (E. coli LPS [1]): 76%
LPS displacement % Reading 1 (E. coli LPS [1]): ~100%
LPS displacement % Reading 2 (E. coli LPS [1]): 39%
LPS displacement % Reading 3 (E. coli LPS [1]): 74%
inhibition (Lipopolysaccharide): 91.4%

CCCCCCCCCCCCCCCCCC(=O)OCCNC(=O)C[n+]1ccccc1.[Cl-] [Steapyrium chloride]
LPS displacement % Mean (E. coli LPS [1]): ~100%
LPS displacement % Reading 1 (E. coli LPS [1]): ~100%
LPS displacement % Reading 2 (E. coli LPS [1]): 100%
LPS displacement % Reading 3 (E. coli LPS [1]): ~100%
inhibition (Lipopolysaccharide): 100%

CCCCCCCCCCCCCCCCCC(=O)NCCCN(C)C [Stearylamidopropyldimethylamine]
LPS displacement % Mean (E. coli LPS [1]): 77%
LPS displacement % Reading 1 (E. coli LPS [1]): 85%
LPS displacement % Reading 2 (E. coli LPS [1]): 71%
LPS displacement % Reading 3 (E. coli LPS [1]): 74%
inhibition (Lipopolysaccharide): 83.8%

CCCCCCCCCCCCCC[N+](C)(C)Cc1ccccc1 [Tetradecylbenzyldimethylammonium chloride]
inhibition (Lipopolysaccharide): 93.8%

[F][Sn][F] [Tin (II) fluoride]
Inhibition of LAL activity % (P. gingivalis LPS 1690): 60% and 49%
Inhibition of LAL activity % (E. coli LPS [2]): 92% and 87%
expression of the NFKB-SEAP reporter gene by LPS and LTA in THP-1 dual cells (NFkB-SEAP reporter gene): inhibited
Displacement % of LPS from binding to BODIPY TR cadaverine (E. coli LPS [1]; 0.63 mM): 12.69%
fluorescence intensity of labeled LPS on HEK-Blue-hTLR4 cells (TLR4 [3]): reduced fluorescence intensity significantly
% of control (TLR4 [3]; 500 μM): 64.5%
Average fluorescence intensity (FI) (TLR4 [3]; 500 μM): 662
binding to E. coli LPS (MALDI-TOF) (E. coli LPS [4]): binds to E. coli LPS
level of P. gingivalis induction of TLR-2 (TLR2): decreased
luciferase production in THP-1 dual cells stimulated by E. coli LPS [5]: inhibited
reduction of P. gingivalis LPS activation on the TLR4 reporter system (TLR4 [6]; 3.2 mM): about 50%
reduction of P. gingivalis LPS activation on the TLR4 reporter system (TLR4 [6]; […]): about 50%
level of E. coli induction of TLR-4 (TLR4 [6]; stannous 500 uM or higher, 100 ng/ml E. coli LPS): decreased
cytokine production stimulated by LPS in human primary monocytes (human primary monocytes; 100 ng E. coli LPS or P. gingivalis LPS 1690, 24 hours): inhibited
suppression of LPS on IL-8 production in human primary monocytes (human primary monocytes; dose-dependent): reversed

Oc1cc(Cl)ccc1Oc1ccc(Cl)cc1Cl [Triclosan (irgasan)]
Inhibition of LAL activity % (P. gingivalis LPS 1690): 0%
Inhibition of LAL activity % (E. coli LPS [2]): 10% and 0%
Average fluorescence intensity (FI) (TLR4 [3]; 500 μM): 1021
remaining activity at 500 µM (TLR4 [3]; HEK-Blue hTLR4, read-out: % of control): 99.4%

C=CCCCCCCCCC=O [Undecylenic aldehyde]
LPS displacement % Mean (E. coli LPS [1]): 22%
LPS displacement % Reading 1 (E. coli LPS [1]): 29%
LPS displacement % Reading 3 (E. coli LPS [1]): 15%

CCCCCC(C=O)=Cc1ccccc1 [alpha-Amylcinnamaldehyde]
LPS displacement % Mean (E. coli LPS [1]): 15%
LPS displacement % Reading 1 (E. coli LPS [1]): 17%
LPS displacement % Reading 3 (E. coli LPS [1]): 13%

CC(C)=CCC/C(C)=C/CC/C(C)=C/CC[C@]1(C)CCc2c(C)c(O)c(C)c(C)c2O1 [alpha.-Tocotrienol]
inhibition (Lipopolysaccharide): 29.9%

CCCCCCCC/C=C\CCCCCCCC(=O)O [cis-Oleic acid]
LPS displacement % Mean (E. coli LPS [1]): 31%
LPS displacement % Reading 1 (E. coli LPS [1]): 54%
LPS displacement % Reading 3 (E. coli LPS [1]): 9%
inhibition (Lipopolysaccharide): 61%

CCCCCCCC/C=C\CCCCCCCC(=O)OCCOCCO [diglycol monooleate]
inhibition (Lipopolysaccharide): 67%

CCCCC/C=C\C/C=C\C/C=C\C/C=C\CCCC(=O)OCC [ethyl arachidonate]
inhibition (Lipopolysaccharide): 28.7%

CCCCCC/C=C\CCCCCCCC(=O)OCC [ethyl cis-9-hexadecenoate]
inhibition (Lipopolysaccharide): 31.8%

CCCCC/C=C\C/C=C\CCCCCCCC(N)=O [linoleamide]
inhibition (Lipopolysaccharide): 75.2%

CCCCCCCCCCCCCCCC(=O)NCCO [palmitamide mea]
inhibition (Lipopolysaccharide): 13.2%

CCCCC/C=C\C/C=C\CCCCCCCC(=O)O [potassium linoleate]
inhibition (Lipopolysaccharide): 98.9%

O=C([O-])C(=O)[O-].[K+].[K+] [potassium oxalate]
Inhibition of LAL activity % (P. gingivalis LPS 1690): 8% and 0%
Inhibition of LAL activity % (E. coli LPS [2]): 1% and 6%

[F-].[Na+] [sodium fluoride]
Inhibition of LAL activity % (P. gingivalis LPS 1690): 0%
Inhibition of LAL activity % (E. coli LPS [2]): 4% and 5%

[Cl][Sn][Cl] [stannous chloride]
Inhibition of LAL activity % (E. coli LPS [2]): 89% and 65%

O.O.O=C([O-])CC(O)(CC(=O)[O-])C(=O)[O-].O=C([O-])CC(O)(CC(=O)[O-])C(=O)[O-].[Zn+2].[Zn+2].[Zn+2] [zinc citrate, dihydrate]
Inhibition of LAL activity % (P. gingivalis LPS 1690; citrate, dihydrate): 104% and 57%
Inhibition of LAL activity % (E. coli LPS [2]; citrate, dihydrate): 104% and 82%

CCCCCCCC/C=C\CCCCCCCC(=O)OCC(O)CO (stereo not drawn) [α-glyceryl monooloeate]
inhibition (Lipopolysaccharide): 49%

CC/C=C\C/C=C\C/C=C\CCCCCCCC(=O)O [α-linoleic acid]
inhibition (Lipopolysaccharide): 97.9%

CC/C=C\C/C=C\C/C=C\CCCCCCCC(=O)OC [α-linolenic acid methyl ester]
inhibition (Lipopolysaccharide): 24.9%

CC(C)=CCC/C(C)=C/CC/C(C)=C/CC[C@]1(C)CCc2cc(O)c(C)c(C)c2O1 [γ-Tocotrienol]
inhibition (Lipopolysaccharide): 38.5%

CC(C)=CCC/C(C)=C/CC/C(C)=C/CC[C@]1(C)CCc2cc(O)cc(C)c2O1 [δ-Tocotrienol]
inhibition (Lipopolysaccharide): 52.4%

Benzalkonium chloride [reference compound]
inhibition (Lipopolysaccharide): 97.5%

Flagellin from B. subtilis: flagellin from B. subtilis
EC50 of flagellin on TLR5 (TLR5; at 5 hours): 0.02 ng/mL
EC50 of flagellin on TLR5 (TLR5; at 23 hours): 0.014 ng/mL

Laureth-6
inhibition (Lipopolysaccharide): 100%

Laureth-9
inhibition (Lipopolysaccharide): 99.9%

Octoxynol-9
inhibition (Lipopolysaccharide): 9.83%

Quaternium-17
inhibition (Lipopolysaccharide): 100%

iron(iii) chloride hexahydrate
LPS displacement % Mean (E. coli LPS [1]): ~100%
LPS displacement % Reading 1 (E. coli LPS [1]): ~100%
LPS displacement % Reading 2 (E. coli LPS [1]): 100%
LPS displacement % Reading 3 (E. coli LPS [1]): ~100%
inhibition (Lipopolysaccharide): 58.1%
